Experimental data from patent publication US4288609A, “Quaternary ammonium derivatives of adamantane with antimicrobic activity” (priority 1976, dated 1981).
Read-outs that look alike come from different tables or passages of the source.

What was measured:
[1] = test system: Diplococcus Pneum. ISM; experiment: M.I.C. in vitro, gram+ Diplococcus Pneum. (Table 1); format: cell-based; conditions: read-out: M.I.C.
Protocol: (§1) The method for evaluating the activity in vitro against bacteria, fungi and protozoa consists in introducing calculated quantities of the substance, the activity of which it is desired to test, into culture media already inoculated with a predetermined number of test germs.
(§2) After 24 or 48 hours of incubation at 30° or 37° C., according to the micro-organism being tested, it is possible to evaluate the growth of the same in the culture broth; in this manner the minimum concentration (M.I.C.) which inhibits the growth of the micro-organisms in vitro is determined.
(§3) In table 1 there are recorded the M.I.C. values in γ/ml of the products subject of the present invention, against certain gram+ and gram- bacterial strains, some of which are pathogenic towards human beings.

[2] = test system: Trich. Vaginalis ISM 66/22; experiment: MIC protozoa, Trichomonas vaginalis (Table 2); format: cell-based; conditions: Trichomonas vaginalis, +10% serum (head); Kupferberg Trichomonas broth with 5% of horse serum; read-out: MIC
Protocol: as §1, §2
(§4) Inoculation with Trichomonas vaginalis and Trichomonas foetus, obtained from cultures transplanted every other day to make them lively, was effected in a ratio of 3.5% of the volume of medium used.
(§5) For the fungi Sabourand broth was used as a culture medium, whilst for the protozoa Kupferberg Trichomonas broth with 5% of horse serum was used.

[3] = test system: Candida Albic. SKF 2270; experiment: MIC yeasts, Candida albicans (Table 2); format: cell-based; conditions: Sabourand broth
Protocol: as §1, §2
(§6) Inoculation with Candida albicans or Candida pseudotropicalis was made by diluting cultures grown for 24 h at 30° C. (cellular density inoculated 10^3 /ml).
as §5

[4] = test system: Trych. Mentagr. 1st.Pastuer; experiment: MIC mildews, Trichophyton mentagrophytes (Table 2); format: cell-based; conditions: Sabourand broth
Protocol: as §1, §2
(§7) Inoculation with Trichophyton mentagrophytes and Microsporum canis was effected in a ratio of 1% of the volume of medium used.
as §5

[5] = Acute oral toxicity in mice (Table 4); conditions: mouse, in vivo, po, LD50, oral, mice, 14 days
Protocol: The substances were administered orally to groups of 10 female mice CF1 of average weight of about 20 grams, in aqueous solution and in such way that the total volume administered would be in each case 1 ml/100 g of weight.

[6] = test system: Streptococ. Henclyt. 0203; experiment: M.I.C. in vitro, gram+ Streptococ. Henclyt. (Table 1); format: cell-based; conditions: for MIC: read-out: M.I.C.
Protocol: as §1, §2, §3

[7] = test system: Proteus Vulc. ATCC 881; experiment: M.I.C. in vitro, gram- Proteus Vulc. (Table 1); format: cell-based; conditions: read-out: M.I.C.
Protocol: as §1, §2, §3

[8] = test system: Trich. Foetus ISM 66/23; experiment: MIC protozoa, Trichomonas foetus (Table 2); format: cell-based; conditions: +10% serum (head), Kupferberg Trichomonas broth with 5% of horse serum
Protocol: as §1, §2, §4, §5

[9] = test system: Candida Pseudotrop. ATCC 2512; experiment: MIC yeasts, Candida pseudotropicalis (Table 2); format: cell-based; conditions: Sabourand broth
Protocol: as §1, §2, §6, §5

[10] = test system: Staph.Aureus Tour; experiment: M.I.C. in vitro, gram+ Staph. Aureus (Table 1); format: cell-based, Staphylococcus Aureus; conditions: Staphylococcus aureus, read-out: M.I.C.
Protocol: as §1, §2, §3

[11] = test system: Pseudom.Aer. ATCC 1014; experiment: M.I.C. in vitro, gram- Pseudom. Aer. (Table 1); format: cell-based, Pseudomonas Aeruginosa; conditions: for MIC: Pseudomonas aeruginosa, read-out: M.I.C.
Protocol: as §1, §2, §3

[12] = test system: Klens. Pneum. ISM; experiment: M.I.C. in vitro, gram- Klens. Pneum. (Table 1); format: cell-based; conditions: read-out: M.I.C.
Protocol: as §1, §2, §3

[13] = test system: Esch. Coli. SKF 12140; experiment: M.I.C. in vitro, gram- Esch. Coli (Table 1); format: cell-based, Escherichia Coli; conditions: Escherichia coli, read-out: M.I.C.
Protocol: as §1, §2, §3

[14] = test system: Nicrosporum Canis ATCC 11621; experiment: MIC mildews, Microsporum canis (Table 2); format: cell-based; conditions: Sabourand broth
Protocol: as §1, §2, §7, §5

[15] = Candida, +10% serum, read-out: MIC
[16] = Candida, without serum, read-out: MIC
[17] = Trichophyton mentagrophytes, +10% serum, read-out: MIC
[18] = Trichophyton mentagrophytes, without serum, read-out: MIC
[19] = Tritrichomonas foetus, read-out: MIC
[20] = Candida, ATCC2512, +10% serum, read-out: MIC
[21] = Candida, ATCC2512, without serum, read-out: MIC
[22] = Microsporum canis, ATCC11621, +10% serum, read-out: MIC
[23] = Microsporum canis, ATCC11621, without serum, read-out: MIC

Compound | MIC ([1]; +10% serum) [µg/mL] | MIC ([1]; without serum) [µg/mL] | MIC [2] [µg/mL] | MIC [3, 15] [µg/mL] | MIC [3, 16] [µg/mL] | MIC [4, 17] [µg/mL] | MIC [4, 18] [µg/mL] | LD50 at 336 h [5] [mg/kg] | MIC ([6]; +10% serum) [µg/mL] | MIC ([6]; without serum) [µg/mL] | MIC ([7]; +10% serum) [µg/mL] | MIC ([7]; without serum) [µg/mL] | MIC [9, 20] [µg/mL] | MIC ([10]; +10% serum) [µg/mL] | MIC ([10]; without serum) [µg/mL] | MIC ([11]; ATCC1014, +10% serum) [µg/mL] | MIC ([12]; +10% serum) [µg/mL] | MIC ([12]; without serum) [µg/mL] | MIC ([13]; +10% serum) [µg/mL] | MIC ([13]; without serum) [µg/mL] | further results
CCCCCCCCCCC[N+](C)(C)CCOC(=O)C12CC3CC(CC(C3)C1)C2 [Example 3] | 5 | 0.5 | 5 | 20 | 0.5 | 10 | 0.1 | 745 | 9.2 | < 0.1 | 100 | 5 | 50 | 5 | < 0.1 | 100 | 100 | 5 | 100 | 2 | MIC [8, 19]: 5 µg/mL; MIC [9, 21]: < 0.1 µg/mL; MIC ([11]; ATCC1014, without serum): 20 µg/mL; MIC [14, 22]: 10 µg/mL; MIC [14, 23]: < 0.1 µg/mL
CCCCCCCCCC[N+](CC)(CC)CCOC(=O)C12CC3CC(CC(C3)C1)C2 [Example 5, n-Decyl-diethyl-(1-adamantane-carboxy)-ethyl-ammonium bromide] | 10 | 0.5 | 10 | 50 | 0.5 | 10 | 0.1 | 750 | 0.5 | < 0.1 | 100 | 10 | 50 | 5 | < 0.1 | 100 | 100 | 10 | 100 | 5 | MIC [8, 19]: 5 µg/mL; MIC [9, 21]: 0.1 µg/mL; MIC ([11]; ATCC1014, without serum): 50 µg/mL; MIC [14, 22]: 20 µg/mL; MIC [14, 23]: 0.1 µg/mL
CCCCCCCCCCCC[N+](CC)(CC)CCOC(=O)C12CC3CC(CC(C3)C1)C2 [Example 6, n-Dodecyl-diethyl-(1-adamantane-carboxy)-ethyl-ammonium bromide] | 5 | 2 | 10 | 50 | 2 | 20 | 0.5 | 935 | 2 | 0.5 | 100 | 20 | 50 | 10 | 0.1 | 100 | 100 | 10 | 100 | 10 | MIC [8, 19]: 5 µg/mL; MIC [9, 21]: 0.5 µg/mL; MIC ([11]; ATCC1014, without serum): 50 µg/mL; MIC [14, 22]: 50 µg/mL; MIC [14, 23]: 0.5 µg/mL
CCCCCCCCCC[N+](C)(C)CCNC(=O)C12CC3CC(CC(C3)C1)C2 [Example 7] | 10 | 0.5 | 5 | 50 | 5 | 20 | 0.5 | 955 | 2 | 0.2 | 100 | 10 | 50 | 5 | 0.2 | 100 | 50 | 10 | 100 | 10 | MIC [8, 19]: 2 µg/mL; MIC [9, 21]: 0.2 µg/mL; MIC ([11]; ATCC1014, without serum): 50 µg/mL; MIC [14, 22]: 20 µg/mL; MIC [14, 23]: 0.5 µg/mL
CCCCCCCCCC[N+](CC)(CC)CCNC(=O)C12CC3CC(CC(C3)C1)C2 [Example 9, n-Decyl-diethyl-(1-adamantane-carbonylamido)-ethylammonium bromide] | 5 | 1 | 5 |  | 1 |  |  | 980 |  |  | 100 | 5 | 50 | 5 | 0.1 | 50 | 50 | 10 | 50 | 5 | MIC ([3]; +10% serum): 20 µg/mL; MIC ([4]; +10% serum): 10 µg/mL; MIC ([4]; without serum): 0.2 µg/mL; M.I.C. ([6]; +10% serum): 0.5 µg/mL; M.I.C. ([6]; without serum): 0.1 µg/mL; MIC [8]: 2 µg/mL; MIC ([9]; without serum): 0.2 µg/mL; M.I.C. ([11]; without serum): 10 µg/mL; MIC ([14]; +10% serum): 20 µg/mL; MIC ([14]; without serum): 0.2 µg/mL
CCCCCCCCCCC[N+](CC)(CC)CCNC(=O)C12CC3CC(CC(C3)C1)C2 [Example 11, n-Undecyl-diethyl-(1-adamantane-carbonylamido)-ethylammonium bromide] | 5 | 1 | 5 | 20 | 1 | 10 | 0.1 | 935 | 2 | < 0.1 | 100 | 10 | 20 | 10 | < 0.1 | 100 | 100 | 5 | 100 | 5 | MIC [8, 19]: 5 µg/mL; MIC [9, 21]: < 0.1 µg/mL; MIC ([11]; ATCC1014, without serum): 20 µg/mL; MIC [14, 22]: 20 µg/mL; MIC [14, 23]: 0.2 µg/mL
CCCCCCCCCCCC[N+](CC)(CC)CCNC(=O)C12CC3CC(CC(C3)C1)C2 [Example 12, n-Dodecyl-diethyl-(1-adamantane-carbonylamido)-ethylammonium bromide] | 20 | 2 | 5 | 20 | 1 | 20 | 0.2 | 890 | 5 | 0.2 | 100 | 5 | 50 | 10 | 0.2 | 100 | 100 | 5 | 100 | 10 | MIC [8, 19]: 5 µg/mL; MIC [9, 21]: 0.1 µg/mL; MIC ([11]; ATCC1014, without serum): 20 µg/mL; MIC [14, 22]: 20 µg/mL; MIC [14, 23]: 0.5 µg/mL
